Measurements as given in patent US20120101110A1, “Diaza-spiro[5.5]undecanes” (priority 2010, published 2012).

Columns and labels:
human orexin 2 receptors [1] = target: T1, human orexin 2 receptors (Homo sapiens, UniProt O43614); test: Calcium accumulation in cells (FLIPR), hOx2R; assay type: cell-based; conditions: cells expressing human orexin 2 receptor; inhibition of orexin A-induced calcium accumulation; Cheng and Prusoff correction
T1 sequence (O43614 1-444): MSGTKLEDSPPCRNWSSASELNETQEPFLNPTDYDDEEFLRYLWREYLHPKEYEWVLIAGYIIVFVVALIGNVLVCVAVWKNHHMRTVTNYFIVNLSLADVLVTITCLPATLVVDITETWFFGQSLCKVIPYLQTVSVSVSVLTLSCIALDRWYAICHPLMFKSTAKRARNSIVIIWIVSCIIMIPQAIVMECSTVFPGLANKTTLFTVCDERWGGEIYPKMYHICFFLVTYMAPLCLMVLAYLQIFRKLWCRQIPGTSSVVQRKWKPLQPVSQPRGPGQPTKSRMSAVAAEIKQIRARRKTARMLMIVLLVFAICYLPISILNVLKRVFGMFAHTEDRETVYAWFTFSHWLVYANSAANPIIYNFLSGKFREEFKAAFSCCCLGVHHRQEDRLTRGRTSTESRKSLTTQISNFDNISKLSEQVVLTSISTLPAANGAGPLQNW

human orexin 1 receptors [2] = target: T2, human orexin 1 receptors (Homo sapiens, UniProt O43613); test: Radioligand binding assay ([3H]-SB649868 competition), hOx1R; conditions: competition with about 1 nM [3H]-SB649868; CHO or HEK cell membranes expressing human orexin 1 receptor
T2 sequence (O43613 1-425): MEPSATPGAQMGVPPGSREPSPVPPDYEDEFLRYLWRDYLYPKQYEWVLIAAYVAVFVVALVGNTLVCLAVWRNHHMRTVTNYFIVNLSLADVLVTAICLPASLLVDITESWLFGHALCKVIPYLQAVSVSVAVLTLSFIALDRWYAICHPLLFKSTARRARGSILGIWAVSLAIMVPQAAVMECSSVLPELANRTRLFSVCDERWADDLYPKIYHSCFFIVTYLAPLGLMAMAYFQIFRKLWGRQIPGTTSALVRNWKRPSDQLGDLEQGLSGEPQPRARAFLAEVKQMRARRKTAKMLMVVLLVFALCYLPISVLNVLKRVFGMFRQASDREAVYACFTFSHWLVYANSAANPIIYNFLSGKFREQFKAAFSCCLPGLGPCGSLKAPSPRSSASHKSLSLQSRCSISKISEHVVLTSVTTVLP
Experimental: (§1) The cell pellet was either stored at −80° C. or used directly. Before the experiments, cell membranes were re-suspended in binding assay buffer (10 mM HEPES, 0.5% (w/v) bovine serum albumin, pH 7.5) by homogenisation with a Polytron homogeniser at 50 Hz for 20 s. Cell membranes were also used as made available by commercial providers.
(§2) Bound radioactivity was measured, and data were analysed with the program XLFIT or Graphpad Prism. Protein concentration was determined according to the Bradford/BioRad Protein Assay Kit.
(§3) In competition experiments, cell homogenates (150 μl) were incubated in assay buffer (10 mM HEPES, pH 7.5, 0.5% (w/v) bovine serum albumin, 5 mM MgCl2, 1 mMCaCl2, and tween 0.05%) for 1 h at room temperature with about 1 nM of the radioligand [^3H]-SB649868, 66 Ci/mmole, 50 μl), and with various concentrations of compounds of the invention (50 μl) in triplicates; non-specific binding was determined in the presence of almorexant (10 μM). Reactions were terminated by vacuum filtration, 3 washes of ice cold wash buffer (Tris-HCl pH 7.4/10 mM, with NaCl 154 mM). Competition data is expressed in Table 2 as Kd [μM].

human orexin 2 receptors [3] = target: T1, human orexin 2 receptors; test: Radioligand binding assay ([3H]-SB649868 competition), hOx2R; conditions: competition with about 1 nM [3H]-SB649868; CHO or HEK cell membranes expressing human orexin 2 receptor; read-out: binding hOx2R Kd
Experimental: as §1, §2
as §3, with “μM).” for “μM). Reactions were terminated by vacuum filtration, 3 washes of ice cold wash buffer (Tris-HCl pH 7.4/10 mM, with NaCl 154 mM). Competition data is expressed in Table 2 as Kd [μM].”

human orexin 1 receptors [4] = target: T2, human orexin 1 receptors; test: Calcium accumulation in cells (FLIPR), hOx1R
Experimental: Cells expressing human orexin 1 or human orexin 2 receptors, were seeded at 8,000 cells/well in 384 well black-walled clear bottom, poly-D-lysine coated plates. After 24 h, the medium was removed and cells were washed once with phosphate buffered saline and serum-deprived overnight in assay buffer (130 mM NaCl, 5.4 mM KCl, 1.8 mM CaCl2, 0.8 mM MgSO4, 0.9 mM NaH2PO4, 25 mM glucose, 20 mM HEPES, pH 7.4) containing bovine serum albumin (1% w/v).
On the day of the experiment, the cells seeded in black plates were treated with assay buffer containing the Ca^2+sensitive fluorescent dye Fluo-4-AM (2 μM), and probenecid (0.1 mM). After 1 h plates were washed twice with, and resuspended in, assay buffer containing probenecid (0.1 mM) using a multi plate washer. The plates were placed into a FLIPR II (Fluorometric Imaging Plate Reader, Molecular Devices, Sunnyvale, Calif., USA) and baseline fluorescence (fluorescence light units, FLU) was measured (5 measurements, 2 S each; laser excitation 488 nm at 0.6-1 W, CCD camera exposure 0.4 s) before addition of buffer alone (basal) or containing test compounds (either compound of formula I alone, agonist alone or agonist in the presence of various concentrations of compounds of formula I). Fluorescence measurements were then continued every 1 S for 120 S followed by every 4 S for 240 S.
Compounds of formula I were tested usually in a concentration range from 10^−9 M to 10^−5 M. In the second round, performed one hour later (to allow for equilibration), Orexin A was tested either in the absence (calibration curves, Orexin A agonist controls) or in the presence of compounds of formula I to determine antagonism.
Inhibition data is expressed in Table 2 as Ki [μM], converted by the Cheng and Prusoff correction (Ki=IC50/1+(L/EC50)), where IC50 is the 50% inhibition value determined in concentration response inhibition curves, EC50 is the half maximal activation concentration determined for orexin A in concentration response curves and L is the concentration of orexin A used in inhibition experiments performed in with a submaximal concentration of orexin A in the presence of up to 8 increasing concentrations of compound of formula I. Inhibition data is also expressed in Table 2 as % inhibition value measured at a concentration of 10 μM of selected compounds of formula I.

Row | SMILES | Ki (human orexin 2 receptors [1]) [nM] | Kd (human orexin 1 receptors [2]) [nM] | Kd (human orexin 2 receptors [3]) [nM] | Ki (human orexin 1 receptors [4]) [nM] | inhibition at 10 µM (human orexin 1 receptors [4]; read-out: FLIPR hOx1R % inhibition value) [%]
1 | COc1cc(OC)nc(N2CCC3(CCCN(Cc4c[nH]c5ccccc45)C3=O)CC2)n1 [Example 88, 2-((1H-indol-3-yl)methyl)-9-(4,6-dimethoxypyrimidin-2-yl)-2,9-diazaspiro[5.5]undecan-1-one] | 46 | 5060 | 611 | 406 | 
2 | N#Cc1ccnc(N2CCC3(CCCC(=O)N3Cc3cccc4[nH]ccc34)CC2)c1 [Example 91, 2-(1-((1H-indol-4-yl)methyl)-2-oxo-1,9-diazaspiro[5.5]undecan-9-yl)isonicotinonitrile] | 17 | > 10000 | 270 |  | 26
3 | N#Cc1cccc(N2CCC3(CCCC(=O)N3Cc3cccc4[nH]ccc34)CC2)n1 [Example 92, 6-(1-((1H-indol-4-yl)methyl)-2-oxo-1,9-diazaspiro[5.5]undecan-9-yl)picolinonitrile] | 104 | > 10000 | 1150 | 2580 | 
4 | Cc1cc(C)nc(N2CCC3(CCCN(Cc4ccccc4-c4ncco4)C3=O)CC2)n1 [Example 93, 9-(4,6-dimethylpyrimidin-2-yl)-2-(2-(oxazol-2-yl)benzyl)-2,9-diazaspiro[5.5]undecan-1-one] | 16 | 4130 | 91 | 1400 | 
5 | Cc1ccnc(N2CCC3(CCCC(=O)N3Cc3cccc4[nH]c(C)cc34)CC2)n1 [Example 96, 1-((2-methyl-1H-indol-4-yl)methyl)-9-(4-methylpyrimidin-2-yl)-1,9-diazaspiro[5.5]undecan-2-one] | 18 | 1940 | 90 | 866 | 
6 | Cc1nc(N2CCC3(CCCN(Cc4c[nH]c5ccccc45)C3=O)CC2)ncc1F [Example 102, 2-((1H-indol-3-yl)methyl)-9-(5-fluoro-4-methylpyrimidin-2-yl)-2,9-diazaspiro[5.5]undecan-1-one] | 40 | 1160 | 59 | 1070 | 
7 | Cc1cc(C)nc(N2CCC3(CCCN(Cc4c[nH]c5c(C)cccc45)C3=O)CC2)n1 [Example 103, 9-(4,6-dimethylpyrimidin-2-yl)-2-((7-methyl-1H-indol-3-yl)methyl)-2,9-diazaspiro[5.5]undecan-1-one] | 26 | 1770 | 35 | 1900 | 
8 | Cc1ccc2[nH]cc(CN3CCCC4(CCN(c5nc(C)cc(C)n5)CC4)C3=O)c2c1 [Example 104, 9-(4,6-dimethylpyrimidin-2-yl)-2-((5-methyl-1H-indol-3-yl)methyl)-2,9-diazaspiro[5.5]undecan-1-one] | 4.8 | 1020 | 25 | 292 | 
9 | Cc1cc(C)nc(N2CCC3(CCCN(Cc4c[nH]c5ccc(C#N)cc45)C3=O)CC2)n1 [Example 105, 3-((9-(4,6-dimethylpyrimidin-2-yl)-1-oxo-2,9-diazaspiro[5.5]undecan-2-yl)methyl)-1H-indole-5-carbonitrile] | 3.3 | 655 | 25 | 295 | 
10 | Cc1cc(C)nc(N2CCC3(CCCN(Cc4n[nH]cc4-c4ccccc4)C3=O)CC2)n1 [Example 106, 9-(4,6-dimethylpyrimidin-2-yl)-2-((4-phenyl-1H-pyrazol-3-yl)methyl)-2,9-diazaspiro[5.5]undecan-1-one] | 3.3 | 1830 | 49 | 763 | 
11 | Cc1cc(C)nc(N2CCC3(CCCN(Cc4nn(C)cc4-c4ccccc4)C3=O)CC2)n1 [Example 107, 9-(4,6-dimethylpyrimidin-2-yl)-2-((1-methyl-4-phenyl-1H-pyrazol-3-yl)methyl)-2,9-diazaspiro[5.5]undecan-1-one] | 20 | 2250 | 166 | 833 | 
12 | Cc1cc(C)nc(N2CCC3(CCCN(Cc4nc(C)oc4-c4ccccc4)C3=O)CC2)n1 [Example 108, 9-(4,6-dimethylpyrimidin-2-yl)-2-((2-methyl-5-phenyloxazol-4-yl)methyl)-2,9-diazaspiro[5.5]undecan-1-one] | 18 | 852 | 72 | 507 | 
13 | Cc1cc(C)nc(N2CCC3(CCCN(Cc4nc(C)sc4-c4ccccc4)C3=O)CC2)n1 [Example 109, 9-(4,6-dimethylpyrimidin-2-yl)-2-((2-methyl-5-phenylthiazol-4-yl)methyl)-2,9-diazaspiro[5.5]undecan-1-one] | 42 | 2560 | 188 | 1370 | 
14 | COc1cccc(-c2sc(C)nc2CN2CCCC3(CCN(c4nc(C)cc(C)n4)CC3)C2=O)c1 [Example 110, 9-(4,6-dimethylpyrimidin-2-yl)-2-((5-(3-methoxyphenyl)-2-methylthiazol-4-yl)methyl)-2,9-diazaspiro[5.5]undecan-1-one] | 3.8 | 236 | 7 | 213 | 
15 | CCc1cc(C)nc(N2CCC3(CCCN(Cc4c[nH]c5ccccc45)C3=O)CC2)n1 [Example 111, 2-((1H-indol-3-yl)methyl)-9-(4-ethyl-6-methylpyrimidin-2-yl)-2,9-diazaspiro[5.5]undecan-1-one] | 11 | 835 | 44 | 761 | 
16 | COc1cc(C)nc(N2CCC3(CCCN(Cc4n[nH]c5ccccc45)C3=O)CC2)n1 [Example 112, 2-((1H-indazol-3-yl)methyl)-9-(4-methoxy-6-methylpyrimidin-2-yl)-2,9-diazaspiro[5.5]undecan-1-one] | 6.1 | 912 | 82 | 255 | 
17 | Cc1cc(N(C)C)nc(N2CCC3(CCCN(Cc4c[nH]c5ccccc45)C3=O)CC2)n1 [Example 113, 2-((1H-indol-3-yl)methyl)-9-(4-(dimethylamino)-6-methylpyrimidin-2-yl)-2,9-diazaspiro[5.5]undecan-1-one] | 21 | 389 | 28 | 1430 | 
18 | COc1ccnc(N2CCC3(CCCN(Cc4ccccc4-c4nc(C)no4)C3=O)CC2)n1 [Example 114, 9-(4-methoxypyrimidin-2-yl)-2-(2-(3-methyl-1,2,4-oxadiazol-5-yl)benzyl)-2,9-diazaspiro[5.5]undecan-1-one] | 30 | 2140 | 231 | 1530 | 
19 | COCc1ccc2[nH]cc(CN3CCCC4(CCN(c5nc(C)cc(C)n5)CC4)C3=O)c2c1 [Example 116, 9-(4,6-dimethylpyrimidin-2-yl)-2-((5-(methoxymethyl)-1H-indol-3-yl)methyl)-2,9-diazaspiro[5.5]undecan-1-one] | 0.3 | 94 | 2 | 33 | 
20 | Cc1cc(C)nc(N2CCC3(CCCN(Cc4c[nH]c5ccc(-n6cccn6)cc45)C3=O)CC2)n1 [Example 117, 2-((5-(1H-pyrazol-1-yl)-1H-indol-3-yl)methyl)-9-(4,6-dimethylpyrimidin-2-yl)-2,9-diazaspiro[5.5]undecan-1-one] | 1.3 | 1020 | 27 | 37 | 
